Patent US12649008B2, “Peptide receptor radionuclide therapy” (The Regents of the University of California, priority 2020, dated 2026)

Experiments:
[1] = system: integrin αvβ6(+) BxPC-3 cells; experiment: Cell binding, internalization and efflux; settings: 37° C.
mouse serum proteins = experiment: Serum protein (albumin) binding by ultrafiltration, mouse serum; type: in vitro ADME; settings: 37° C.
Procedure: The devices were pre-treated with PBS containing Tween 20 (5% v/v) as disclosed in Hausner 2007, followed by triplicate rinses with PBS. An aliquot of each formulated radiotracer in PBS (≤25 μL, 20-60 KBq) was thoroughly mixed with 0.5 mL serum at 37° C. in a microfuge tube. The mixture was incubated at 37° C. for 5 min and an aliquot (50 μL) of was transferred to a tube for γ-counting. The remaining sample was transferred to a Centrifree Ultrafiltration device and centrifuged for 40 min. at 1500×g at ambient temperature (20-24° C.). An aliquot (50 μL) of the filtrate was transferred to a tube for γ-counting. For each radiotracer, a blank was run using 0.5 mL PBS/Tween 20 (5% v/v) instead of serum (n=4) to determine non-specific binding. Following γ-counting, the protein-bound radioactivity was calculated by subtracting the counts measured in the filtrate aliquot (i.e., not protein bound) from the counts in the corresponding serum aliquot. The data are expressed as mean±standard deviation of fraction of radioactivity bound to protein after subtraction of non-specific binding determined in the blank.

CNC(=O)C(CCCCNC(=O)C(CC(=O)O)NC(=O)CCCNC(=O)CCCc1ccc(I)cc1)NC(=O)CN1CCN2CCN3CCN(CC1)CC(=O)[O][177Lu]([O]C(=O)C2)[O]C(=O)C3 (stereo not shown) [[^177Lu]Lu DOTA-ABM-5G]
bound to BxPC-3 cells (of total radioactivity) ([1]; 1 h): 29±1.4%
internalized into BxPC-3 cells (of total radioactivity) ([1]; 1 h): 21.6±0.01%
efflux from BxPC-3 cells ([1]; at 1 hour post-internalization): 5%
albumin (serum protein) binding (mouse serum proteins): 54.4±2.8%
